These results are taken from PubChem BioAssay AID180 (DTP/NCI, 2004).

This assay deals with BDF1 mice, Adenocarcinoma 755 s.c., tumor weight T/C. Kind of assay: NCI In Vivo Anticancer Drug Screen. Data for tumor model Adenocarcinoma 755 (subcutaneous) in B6D2F1 (BDF1) mice. Conditions: endpoint: mean tumor weight, higher = larger tumour. Put shortly:
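Transplantable tumor implanted; mice dosed with compound or vehicle; survival or tumor size recorded; ratio of treated to vehicle control reported.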

[1] abbreviates: dose: 30.0 mg/kg/injection, schedule: Q01DX011 (ip), vehicle: carboxymethylcellulose (CMC).
Where [2] appears, read: dose: 60.0 mg/kg/injection, schedule: Q01DX011 (ip), vehicle: carboxymethylcellulose (CMC).
Setting [3] is: dose: 120.0 mg/kg/injection, schedule: Q01DX011 (ip), vehicle: carboxymethylcellulose (CMC).
Where [4] appears, read: dose: 75.0 mg/kg/injection, schedule: Q01DX011 (ip), vehicle: carboxymethylcellulose (CMC).

The structures appear in SMILES notation. Several values for one entry are separate records, joined by “and”; a condition that tells them apart may be missing. Identical values can stand only once.

For the compound `O=c1[nH]cnc2c1ncn2C1CCCCC1`, the T/C (dose: 23.0 mg/kg/injection, schedule: Q01DX011 (ip), vehicle: carboxymethylcellulose (CMC)) was 93 % of control and 111 % of control; the T/C (dose: 23.1 mg/kg/injection, schedule: Q01DX011 (ip), vehicle: carboxymethylcellulose (CMC)) is 86 % of control; the T/C (dose: 23.12 mg/kg/injection, schedule: Q01DX011 (ip), vehicle: carboxymethylcellulose (CMC)) was 74 % of control; the T/C (dose: 46.0 mg/kg/injection, schedule: Q01DX011 (ip), vehicle: carboxymethylcellulose (CMC)) is 74 % of control and 85 % of control; the T/C (dose: 46.2 mg/kg/injection, schedule: Q01DX011 (ip), vehicle: carboxymethylcellulose (CMC)) is 118 % of control; the T/C (dose: 46.25 mg/kg/injection, schedule: Q01DX011 (ip), vehicle: carboxymethylcellulose (CMC)) was 117 % of control. The T/C by setting is: (dose: 46.25 mg/kg/injection, schedule: Q01DX011 (oral), vehicle: carboxymethylcellulose (CMC)) 104 % of control; (dose: 92.5 mg/kg/injection, schedule: Q01DX011 (ip), vehicle: carboxymethylcellulose (CMC)) 90 % of control and 99 % of control and 108 % of control; (dose: 92.5 mg/kg/injection, schedule: Q01DX011 (oral), vehicle: carboxymethylcellulose (CMC)) 118 % of control; (dose: 185.0 mg/kg/injection, schedule: Q01DX011 (oral), vehicle: carboxymethylcellulose (CMC)) 114 % of control; (dose: 370.0 mg/kg/injection, schedule: Q01DX011 (oral), vehicle: carboxymethylcellulose (CMC)) 79 % of control.

In the case of `Nc1nc2c([nH]c(=S)n2C2OC(CO)C(O)C2O)c(=O)[nH]1` (stereo not given), the T/C runs as follows: under setting [1], 89 % of control; under setting [2], 156 % of control; under setting [3], 112 % of control; (dose: 240.0 mg/kg/injection, schedule: Q01DX011 (ip), vehicle: carboxymethylcellulose (CMC)) 110 % of control.

For `O=C(O)C1CCCN1c1ncnc2nc[nH]c12` (stereo not given), the T/C reads like this: (dose: 25.0 mg/kg/injection, schedule: Q01DX011 (ip), vehicle: saline) 115 % of control; (dose: 75.0 mg/kg/injection, schedule: Q01DX011 (ip), vehicle: saline) 104 % of control.

For the compound `CCCCSc1nc(N)nc2c1ncn2CC(C)CC` (stereo not given), the T/C (dose: 37.5 mg/kg/injection, schedule: Q01DX011 (ip), vehicle: carboxymethylcellulose (CMC)) was 30 % of control and 47 % of control; the T/C (dose: 150.0 mg/kg/injection, schedule: Q01DX011 (ip), vehicle: carboxymethylcellulose (CMC)) was 2 % of control and 18 % of control; the T/C (dose: 300.0 mg/kg/injection, schedule: Q01DX011 (ip), vehicle: carboxymethylcellulose (CMC)) is 2 % of control.

With `Cc1ccccc1Nc1nc(N)nc(C)c1Br`, the T/C was 55 % of control (dose: 15.0 mg/kg/injection, schedule: Q01DX011 (ip), vehicle: methylcellulose (MC)); 88 % of control (dose: 31.0 mg/kg/injection, schedule: Q01DX011 (ip), vehicle: methylcellulose (MC)); 106 % of control (dose: 62.0 mg/kg/injection, schedule: Q01DX011 (ip), vehicle: methylcellulose (MC)); 72 % of control (dose: 125.0 mg/kg/injection, schedule: Q01DX011 (ip), vehicle: methylcellulose (MC)); 81 % of control (dose: 250.0 mg/kg/injection, schedule: Q01DX011 (ip), vehicle: methylcellulose (MC)).

`O=C1N(Br)C(=O)C(c2ccc(Cl)cc2)(c2ccc(Cl)cc2)N1Br`: the T/C is, setting by setting: (dose: 1.7 mg/kg/injection, schedule: Q01DX011 (ip), vehicle: carboxymethylcellulose (CMC)) 42 % of control; (dose: 3.5 mg/kg/injection, schedule: Q01DX011 (ip), vehicle: carboxymethylcellulose (CMC)) 76 % of control; (dose: 7.0 mg/kg/injection, schedule: Q01DX011 (ip), vehicle: carboxymethylcellulose (CMC)) 91 % of control; (dose: 14.0 mg/kg/injection, schedule: Q01DX011 (ip), vehicle: carboxymethylcellulose (CMC)) 35 % of control and 39 % of control and 43 % of control; (dose: 28.0 mg/kg/injection, schedule: Q01DX011 (ip), vehicle: carboxymethylcellulose (CMC)) 35 % of control and 49 % of control; under setting [1], 22 % of control and 38 % of control. The T/C runs as follows: (dose: 56.0 mg/kg/injection, schedule: Q01DX011 (ip), vehicle: carboxymethylcellulose (CMC)) 20 % of control; under setting [2], 29 % of control and 35 % of control; (dose: 112.0 mg/kg/injection, schedule: Q01DX011 (ip), vehicle: carboxymethylcellulose (CMC)) 38 % of control; under setting [3], 14 % of control.

`CNC(C)=O`: the T/C is, setting by setting: (dose: 125.0 mg/kg/injection, schedule: Q01DX011 (ip), vehicle: carboxymethylcellulose (CMC)) 79 % of control and 86 % of control; (dose: 250.0 mg/kg/injection, schedule: Q01DX011 (ip), vehicle: carboxymethylcellulose (CMC)) 104 % of control and 85 % of control; (dose: 1000.0 mg/kg/injection, schedule: Q01DX011 (ip), vehicle: carboxymethylcellulose (CMC)) 60 % of control and 82 % of control.

In the case of `O=CNC(Cc1cccc(N(CCCl)CCCl)c1)C(=O)O` (stereo not given), the T/C by setting is: (dose: 0.25 mg/kg/injection, schedule: Q01DX011 (ip), vehicle: methylcellulose (MC)) 96 % of control; (dose: 0.5 mg/kg/injection, schedule: Q01DX011 (ip), vehicle: methylcellulose (MC)) 59 % of control; (dose: 1.0 mg/kg/injection, schedule: Q01DX011 (ip), vehicle: methylcellulose (MC)) 57 % of control; (dose: 1.1 mg/kg/injection, schedule: Q01DX011 (ip), vehicle: methylcellulose (MC)) 36 % of control; (dose: 2.0 mg/kg/injection, schedule: Q01DX011 (ip), vehicle: methylcellulose (MC)) 41 % of control; (dose: 2.25 mg/kg/injection, schedule: Q01DX011 (ip), vehicle: methylcellulose (MC)) 22 % of control. Moreover, the T/C (dose: 4.5 mg/kg/injection, schedule: Q01DX011 (ip), vehicle: methylcellulose (MC)) is 4 % of control.

With `Nc1ncnc2c1ncn2CCO`, the T/C (dose: 25.0 mg/kg/injection, schedule: Q01DX011 (ip), vehicle: methylcellulose (MC)) is 52 % of control; the T/C (dose: 50.0 mg/kg/injection, schedule: Q01DX011 (ip), vehicle: methylcellulose (MC)) was 76 % of control; the T/C (dose: 100.0 mg/kg/injection, schedule: Q01DX011 (ip), vehicle: methylcellulose (MC)) was 67 % of control.

In the case of `CC(=O)OCC(=O)[C@@]1(O)CC[C@H]2[C@@H]3CCC4=CC(=O)[C@H](C)C[C@]4(C)[C@H]3[C@@H](O)C[C@@]21C`, the T/C is, setting by setting: (dose: 6.2 mg/kg/injection, schedule: Q01DX011 (sc), vehicle: steriod suspending solution) 52 % of control; (dose: 12.5 mg/kg/injection, schedule: Q01DX011 (sc), vehicle: steriod suspending solution) 43 % of control; (dose: 25.0 mg/kg/injection, schedule: Q01DX011 (sc), vehicle: steriod suspending solution) 13 % of control and 38 % of control; (dose: 50.0 mg/kg/injection, schedule: Q01DX011 (sc), vehicle: steriod suspending solution) 32 % of control; (dose: 100.0 mg/kg/injection, schedule: Q01DX011 (sc), vehicle: steriod suspending solution) 15 % of control; (dose: 400.0 mg/kg/injection, schedule: Q01DX011 (sc), vehicle: steriod suspending solution) 4 % of control.

Turning to `CCCC(=O)OCC1OC(n2cnc3c(=S)nc(N)[nH]c32)C(OC(=O)CCC)C1OC(=O)CCC` (stereo not given), the T/C (dose: 0.16 mg/kg/injection, schedule: Q01DX011 (ip), vehicle: saline) was 57 % of control; the T/C (dose: 0.38 mg/kg/injection, schedule: Q01DX011 (ip), vehicle: saline) was 88 % of control; the T/C (dose: 0.58 mg/kg/injection, schedule: Q01DX011 (ip), vehicle: saline) is 82 % of control; the T/C (dose: 1.3 mg/kg/injection, schedule: Q01DX011 (ip), vehicle: saline) is 31 % of control; the T/C (dose: 2.0 mg/kg/injection, schedule: Q01DX011 (ip), vehicle: saline) was 18 % of control; the T/C (dose: 3.0 mg/kg/injection, schedule: Q01DX011 (ip), vehicle: saline) was 4 % of control. For the same compound, the T/C was 2 % of control and 11 % of control (dose: 6.0 mg/kg/injection, schedule: Q01DX011 (ip), vehicle: carboxymethylcellulose (CMC)); 2 % of control and 3 % of control (dose: 12.0 mg/kg/injection, schedule: Q01DX011 (ip), vehicle: carboxymethylcellulose (CMC)); 1 % of control (dose: 24.0 mg/kg/injection, schedule: Q01DX011 (ip), vehicle: carboxymethylcellulose (CMC)).

`CN(C)S(=O)(=O)c1nc2nc[nH]c2c(=O)[nH]1`: the T/C (dose: 25.0 mg/kg/injection, schedule: Q01DX011 (ip), vehicle: carboxymethylcellulose (CMC)) was 70 % of control; the T/C under setting [4] was 66 % of control; the T/C (dose: 225.0 mg/kg/injection, schedule: Q01DX011 (ip), vehicle: carboxymethylcellulose (CMC)) is 85 % of control.

For `CCCCN(C)N=Nc1ccc(C(N)=O)cc1`, the T/C reads like this: (dose: 16.0 mg/kg/injection, schedule: Q01DX011 (ip), vehicle: carboxymethylcellulose (CMC)) 14 % of control; (dose: 31.0 mg/kg/injection, schedule: Q01DX011 (ip), vehicle: carboxymethylcellulose (CMC)) 27 % of control; (dose: 50.0 mg/kg/injection, schedule: Q01DX011 (ip), vehicle: carboxymethylcellulose (CMC)) 25 % of control; under setting [4], 14 % of control.
